In ChEMBL document CHEMBL1201862, “PubChem BioAssay data set” (2004):
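Where inhibition never reached the appropriate level, the endpoint shown equals the highest concentration tested. Otherwise, values were interpolated linearly from a five-concentration, 48-hour dose response in 96-well plates. GI50: concentration for 50% inhibition of growth.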 The source made the active and inactive calls. No stated cut-off is given here; in the data, active = GI50 up to about 1.1 µM and inactive = higher.

Columns and labels:
Test in all cases: DTP human tumour cell line panel, 48 h
[1] = system: SF-268
[2] = system: HCC 2998
[3] = system: NCI-H23
[4] = system: OVCAR-4
[5] = system: HOP-92
[6] = system: U-251
[7] = system: KM12
[8] = system: DMS-114
[9] = system: A549
[10] = system: HCT-15
[11] = system: M19-MEL
[12] = system: EKVX
[13] = system: 786-0
[14] = system: DLD-1
[15] = system: SF-539
[16] = system: NCI-H460
[17] = system: SNB-78
[18] = system: SF-295
[19] = system: MOLT-4
[20] = system: XF498
[21] = system: SK-MEL-28
[22] = system: K562
[23] = system: SN12C
[24] = system: IGROV-1
[25] = system: ACHN
[26] = system: TK-10
[27] = system: HT-29
[28] = system: UO-31
[29] = system: DMS-273
[30] = system: OVCAR-5
[31] = system: OVCAR-8
[32] = system: SK-MEL-2
[33] = system: HL-60
[34] = system: OVCAR-3
[35] = system: SNB-19
[36] = system: SNB-75
[37] = system: SK-OV-3
[38] = system: HOP-18
[39] = system: M14
[40] = system: LXFL 529
[41] = system: RPMI-8226
[42] = system: Malme-3M
[43] = system: NCI-H226
[44] = system: COLO 205
[45] = system: HCT-116
[46] = system: UACC-257
[47] = system: CCRF-CEM
[48] = system: LOX IMVI
[49] = system: NCI/ADR-RES
[50] = system: SK-MEL-5
[51] = system: RXF 393
[52] = system: HOP-62
[53] = system: UACC-62
[54] = system: NCI-H522
[55] = system: A498
[56] = system: KM-20L2
[57] = system: SW-620
[58] = system: MCF7
[59] = system: CAKI-1

Cc1ccc(S(=O)(=O)C(C#N)c2nc3ccccc3nc2-n2cccn2)cc1 (configuration not stated)
GI50 [1]: > 100 µM (inactive) | GI50 [2]: > 100 µM (inactive) | GI50 [3]: > 100 µM (inactive) | GI50 [4]: > 100 µM (inactive) | GI50 [5]: > 100 µM (inactive) | GI50 [6]: > 100 µM (inactive) | GI50 [7]: > 100 µM (inactive) | GI50 [8]: > 100 µM (inactive) | GI50 [9]: > 100 µM (inactive) | GI50 [10]: > 100 µM | GI50 [11]: > 100 µM (inactive) | GI50 [12]: > 100 µM (inactive) | GI50 [13]: > 100 µM (inactive) | GI50 [14]: > 100 µM (inactive) | GI50 [15]: > 100 µM (inactive) | GI50 [16]: > 100 µM (inactive) | GI50 [17]: > 100 µM (inactive) | GI50 [18]: > 100 µM (inactive) | GI50 [19]: > 100 µM (inactive) | GI50 [20]: > 100 µM (inactive) | GI50 [21]: > 100 µM (inactive) | GI50 [22]: > 100 µM (inactive) | GI50 [23]: > 100 µM (inactive) | GI50 [24]: > 100 µM (inactive) | GI50 [25]: > 100 µM (inactive) | GI50 [26]: > 100 µM (inactive) | GI50 [27]: > 100 µM (inactive) | GI50 [28]: > 100 µM (inactive) | GI50 [29]: > 100 µM (inactive) | GI50 [30]: > 100 µM (inactive) | GI50 [31]: > 100 µM (inactive) | GI50 [32]: > 100 µM (inactive) | GI50 [33]: > 100 µM (inactive) | GI50 [34]: > 100 µM (inactive) | GI50 [35]: > 100 µM (inactive) | GI50 [36]: > 100 µM (inactive) | GI50 [37]: > 100 µM (inactive) | GI50 [38]: 86.9 µM (inactive) | GI50 [39]: > 100 µM (inactive) | GI50 [40]: > 100 µM (inactive) | GI50 [41]: > 100 µM (inactive) | GI50 [42]: > 100 µM (inactive) | GI50 [43]: > 100 µM (inactive) | GI50 [44]: > 100 µM (inactive) | GI50 [45]: > 100 µM (inactive) | GI50 [46]: > 100 µM (inactive) | GI50 [47]: > 100 µM (inactive)

Nc1[nH]cnc2ncnc1-2 [ADENINE]
GI50 [2]: > 125 µM (inactive) | GI50 [48]: 140 µM (inactive) | GI50 [4]: > 126 µM (inactive) | GI50 [5]: 146 µM (inactive) | GI50 [49]: 46.2 µM (inactive) | GI50 [6]: 108 µM (inactive) | GI50 [7]: 153 µM (inactive) | GI50 [8]: 84.1 µM (inactive) | GI50 [50]: > 96.6 µM (inactive) | GI50 [51]: 30.1 µM (inactive) | GI50 [52]: 58.9 µM (inactive) | GI50 [11]: > 141 µM (inactive) | GI50 [14]: 135 µM (inactive) | GI50 [15]: 49.7 µM (inactive) | GI50 [53]: 48.1 µM (inactive) | GI50 [17]: 114 µM (inactive) | GI50 [18]: 108 µM (inactive) | GI50 [20]: 9.4 µM (inactive) | GI50 [21]: > 243 µM (inactive) | GI50 [22]: > 248 µM (inactive) | GI50 [23]: 96.2 µM (inactive) | GI50 [24]: > 250 µM (inactive) | GI50 [54]: 50.7 µM (inactive) | GI50 [27]: > 121 µM (inactive) | GI50 [28]: 129 µM (inactive) | GI50 [29]: 81.1 µM (inactive) | GI50 [55]: 7.14 µM (inactive) | GI50 [30]: > 250 µM (inactive) | GI50 [31]: 105 µM (inactive) | GI50 [32]: > 250 µM (inactive) | GI50 [33]: 36.6 µM (inactive) | GI50 [36]: 121 µM (inactive) | GI50 [37]: > 250 µM (inactive) | GI50 [38]: 109 µM (inactive) | GI50 [56]: > 250 µM (inactive) | GI50 [41]: 168 µM (inactive) | GI50 [43]: 111 µM (inactive) | GI50 [44]: > 162 µM (inactive) | GI50 [57]: 231 µM (inactive) | GI50 [45]: > 250 µM (inactive) | GI50 [58]: > 21.3 µM (inactive) | GI50 [46]: 200 µM (inactive)

COc1ccc(/N=N/c2c(-c3ccccc3)nn(C(=O)CC(=O)Nc3cccc(Cl)c3)c2-c2ccccc2)cc1
GI50 [1]: > 100 µM (inactive) | GI50 [2]: 21.5 µM (inactive) | GI50 [48]: > 100 µM (inactive) | GI50 [3]: 22.6 µM (inactive) | GI50 [4]: 67.9 µM (inactive) | GI50 [5]: 40.6 µM (inactive) | GI50 [6]: > 100 µM (inactive) | GI50 [7]: 10.9 µM (inactive) | GI50 [8]: 45.8 µM (inactive) | GI50 [50]: 72.9 µM (inactive) | GI50 [9]: 32.3 µM (inactive) | GI50 [10]: > 100 µM | GI50 [52]: 24.2 µM (inactive) | GI50 [11]: > 100 µM (inactive) | GI50 [12]: 29.4 µM (inactive) | GI50 [13]: > 100 µM (inactive) | GI50 [14]: 40.6 µM (inactive) | GI50 [15]: 68.9 µM (inactive) | GI50 [16]: 49.3 µM (inactive) | GI50 [53]: > 100 µM (inactive) | GI50 [18]: 26.9 µM (inactive) | GI50 [19]: 70.1 µM (inactive) | GI50 [20]: > 100 µM (inactive) | GI50 [21]: > 100 µM (inactive) | GI50 [22]: 85.7 µM (inactive) | GI50 [23]: > 100 µM (inactive) | GI50 [24]: > 100 µM (inactive) | GI50 [25]: > 100 µM (inactive) | GI50 [54]: 43 µM (inactive) | GI50 [26]: 72.9 µM (inactive) | GI50 [27]: > 100 µM (inactive) | GI50 [28]: 5.11 µM (inactive) | GI50 [29]: > 100 µM (inactive) | GI50 [55]: > 100 µM (inactive) | GI50 [30]: 61.2 µM (inactive) | GI50 [31]: > 100 µM (inactive) | GI50 [32]: > 100 µM (inactive) | GI50 [33]: > 100 µM (inactive) | GI50 [34]: 29.6 µM (inactive) | GI50 [35]: > 100 µM (inactive) | GI50 [36]: 6.08 µM (inactive) | GI50 [37]: > 100 µM (inactive) | GI50 [38]: 66.8 µM (inactive) | GI50 [56]: 66.1 µM (inactive) | GI50 [40]: > 100 µM (inactive) | GI50 [41]: > 100 µM (inactive) | GI50 [42]: > 100 µM (inactive) | GI50 [43]: 4.82 µM (inactive) | GI50 [44]: > 100 µM (inactive) | GI50 [57]: > 100 µM (inactive) | GI50 [45]: 45.6 µM (inactive) | GI50 [59]: 34.5 µM (inactive) | GI50 [46]: > 100 µM (inactive) | GI50 [47]: > 100 µM (inactive)

Cc1c2c(cc3c1[nH]c1ccccc13)C=NCC2
GI50 [1]: 16.8 µM (inactive) | GI50 [2]: 21.5 µM (inactive) | GI50 [48]: 8.09 µM (inactive) | GI50 [3]: 19.7 µM (inactive) | GI50 [4]: 16.6 µM (inactive) | GI50 [5]: 3.18 µM (inactive) | GI50 [49]: 12.2 µM (inactive) | GI50 [6]: 13.4 µM (inactive) | GI50 [7]: 8.65 µM (inactive) | GI50 [8]: 6.9 µM (inactive) | GI50 [50]: 6.41 µM (inactive) | GI50 [51]: 6.89 µM (inactive) | GI50 [9]: 15.2 µM (inactive) | GI50 [10]: 13.1 µM | GI50 [52]: 31.8 µM (inactive) | GI50 [11]: 11.1 µM (inactive) | GI50 [12]: 33 µM (inactive) | GI50 [14]: 4.2 µM (inactive) | GI50 [15]: 6.37 µM (inactive) | GI50 [16]: 8.53 µM (inactive) | GI50 [53]: 8.49 µM (inactive) | GI50 [17]: 19.7 µM (inactive) | GI50 [18]: 11.2 µM (inactive) | GI50 [19]: 7.69 µM (inactive) | GI50 [20]: 7.14 µM (inactive) | GI50 [21]: 7.36 µM (inactive) | GI50 [22]: 6.17 µM (inactive) | GI50 [23]: 19 µM (inactive) | GI50 [24]: 16.2 µM (inactive) | GI50 [54]: 12.9 µM (inactive) | GI50 [27]: 14.2 µM (inactive) | GI50 [28]: 24 µM (inactive) | GI50 [29]: 12.6 µM (inactive) | GI50 [55]: 10.5 µM (inactive) | GI50 [30]: 22 µM (inactive) | GI50 [31]: 10.2 µM (inactive) | GI50 [32]: 10.1 µM (inactive) | GI50 [33]: 5.78 µM (inactive) | GI50 [34]: 1.26 µM (inactive) | GI50 [35]: 18.2 µM (inactive) | GI50 [36]: 10.6 µM (inactive) | GI50 [37]: 46.8 µM (inactive) | GI50 [38]: 9.62 µM (inactive) | GI50 [56]: 9.51 µM (inactive) | GI50 [41]: 10.5 µM (inactive) | GI50 [42]: 6.61 µM (inactive) | GI50 [43]: 20.7 µM (inactive) | GI50 [44]: 7.13 µM (inactive) | GI50 [57]: 8.43 µM (inactive) | GI50 [45]: 6.34 µM (inactive) | GI50 [58]: 2.92 µM (inactive) | GI50 [59]: 11.3 µM (inactive) | GI50 [46]: 7.83 µM (inactive) | GI50 [47]: 7.48 µM (inactive)
